Source: PubChem BioAssay AID248 (DTP/NCI, 2004)
Several values for one entry are separate records, joined by “and”; a condition that tells them apart may be missing. Equal values may be shown once. Inconclusive results and toxic doses are left out.

Test system: L1210 leukemia ip in BDF1 mice, survival T/C
Test: NCI In Vivo Anticancer Drug Screen. Data for tumor model L1210 Leukemia (intraperitoneal) in B6D2F1 (BDF1) mice
Conditions: endpoint: mean survival time, higher = longer survival
How it was run: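 Survival endpoint. Drug-treated group vs vehicle group, expressed as T divided by C. Tumor passaged by transplantation.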

[1] = dose: 50.0 mg/kg/injection, schedule: Q01DX001 (ip), vehicle: saline
[2] = dose: 100.0 mg/kg/injection, schedule: Q01DX001 (ip), vehicle: saline
[3] = dose: 100.0 mg/kg/injection, schedule: Q01DX009 (ip), vehicle: Klucel (hydroxypropylcellulose) (HPC)
[4] = dose: 200.0 mg/kg/injection, schedule: Q01DX009 (ip), vehicle: Klucel (hydroxypropylcellulose) (HPC)
[5] = dose: 400.0 mg/kg/injection, schedule: Q01DX009 (ip), vehicle: Klucel (hydroxypropylcellulose) (HPC)
[6] = dose: 100.0 mg/kg/injection, schedule: Q04DX003 (ip), vehicle: Klucel (hydroxypropylcellulose) (HPC)
[7] = dose: 200.0 mg/kg/injection, schedule: Q04DX003 (ip), vehicle: Klucel (hydroxypropylcellulose) (HPC)
[8] = dose: 400.0 mg/kg/injection, schedule: Q04DX003 (ip), vehicle: Klucel (hydroxypropylcellulose) (HPC)
[9] = dose: 200.0 mg/kg/injection, schedule: Q01DX001 (ip), vehicle: carboxymethylcellulose (CMC)
[10] = dose: 200.0 mg/kg/injection, schedule: Q01DX001 (ip), vehicle: saline

O=c1c(O)c(-c2ccc(O)cc2O)oc2cc(O)cc(O)c12
T/C (dose: 100.0 mg/kg/injection, schedule: Q01DX009 (ip), vehicle: saline with Tween-80): 103 % of control
T/C (dose: 200.0 mg/kg/injection, schedule: Q01DX009 (ip), vehicle: saline with Tween-80): 98 % of control
T/C (dose: 400.0 mg/kg/injection, schedule: Q01DX009 (ip), vehicle: saline with Tween-80): 90 % of control

NCCCCC(N)C(=O)Nc1ccc(Cc2ccc(NC(=O)C(N)CCCCN)cc2)cc1 (stereo not given)
T/C [1]: 103 % of control
T/C [2]: 100 % of control

COc1ccc2c(c1)CC(CN1CCC3(CC1)C(=O)N(C)CN3c1ccccc1)O2 (stereo not given)
T/C (dose: 75.0 mg/kg/injection, schedule: Q04DX003 (ip), vehicle: Klucel (hydroxypropylcellulose) (HPC)): 101 % of control
T/C (dose: 150.0 mg/kg/injection, schedule: Q04DX003 (ip), vehicle: Klucel (hydroxypropylcellulose) (HPC)): 107 % of control
T/C (dose: 300.0 mg/kg/injection, schedule: Q04DX003 (ip), vehicle: Klucel (hydroxypropylcellulose) (HPC)): 95 % of control

CCOC(=O)/C(O)=C\c1ccc(OC)n[n+]1[O-]
T/C (dose: 35.0 mg/kg/injection, schedule: Q04DX002 (ip), vehicle: Klucel (hydroxypropylcellulose) (HPC)): 104 % of control
T/C (dose: 70.0 mg/kg/injection, schedule: Q04DX002 (ip), vehicle: Klucel (hydroxypropylcellulose) (HPC)): 104 % of control
T/C (dose: 140.0 mg/kg/injection, schedule: Q04DX002 (ip), vehicle: Klucel (hydroxypropylcellulose) (HPC)): 104 % of control

CC(C)(CO)COS(=O)(=O)c1ccc(Br)cc1
T/C (dose: 50.0 mg/kg/injection, schedule: Q01DX009 (ip), vehicle: saline with Tween-80): 89 % of control

CCCCOc1ccc(/C=N/NC(=S)Nc2ccccc2)cc1
T/C [3]: 97 % of control
T/C [4]: 98 % of control
T/C [5]: 95 % of control

Cc1ccc(NC(=O)/C=C\C(=O)O)cc1
T/C [3]: 103 % of control
T/C [6]: 97 % of control
T/C [4]: 108 % of control
T/C [7]: 96 % of control
T/C [5]: 91 % of control
T/C [8]: 91 % of control

Nc1nc(N)nc(-c2ccccc2N=NN2CCCC2)n1
T/C [6]: 105 % of control
T/C [7]: 98 % of control
T/C [8]: 95 % of control

CC1=C(Br)C(=O)C(Br)=C(Br)C1=O
T/C (dose: 100.0 mg/kg/injection, schedule: Q04DX003 (ip), vehicle: acetone): 96 % of control

Nc1nc(=O)n(CC(=O)c2ccco2)cc1F
T/C (dose: 100.0 mg/kg/injection, schedule: Q01DX009 (ip), vehicle: saline): 100 % of control
T/C (dose: 100.0 mg/kg/injection, schedule: Q04DX003 (ip), vehicle: saline): 95 % of control
T/C (dose: 200.0 mg/kg/injection, schedule: Q01DX009 (ip), vehicle: saline): 94 % of control
T/C (dose: 200.0 mg/kg/injection, schedule: Q04DX003 (ip), vehicle: saline): 97 % of control
T/C (dose: 400.0 mg/kg/injection, schedule: Q04DX003 (ip), vehicle: saline): 93 % of control

CC/C=C/c1cccc(OC)c1
T/C [3]: 102 % of control
T/C [6]: 105 % of control
T/C [4]: 96 % of control
T/C [7]: 110 % of control
T/C [5]: 95 % of control
T/C [8]: 96 % of control

Cc1ccc(NC(=O)c2ccc(Cl)cc2)cc1Cl
T/C [3]: 105 % of control
T/C [6]: 94 % of control
T/C [4]: 98 % of control
T/C [7]: 94 % of control
T/C [5]: 92 % of control
T/C [8]: 104 % of control

COc1cc(C=Nc2cc(Br)c(OC)c(Br)c2)ccc1N(CCCl)CCCl
T/C (dose: 19.0 mg/kg/injection, schedule: Q01DX001 (ip), vehicle: carboxymethylcellulose (CMC)): 118 % of control
T/C (dose: 29.0 mg/kg/injection, schedule: Q01DX001 (ip), vehicle: carboxymethylcellulose (CMC)): 118 % of control
T/C (dose: 150.0 mg/kg/injection, schedule: Q01DX001 (ip), vehicle: carboxymethylcellulose (CMC)): 150 % of control
T/C [9]: 104 % of control

CC1=CC(=N\S(=O)(=O)c2ccccc2)/C2(Cl)CC(C)=C(C)CC2/C1=N/S(=O)(=O)c1ccccc1 (stereo not given)
T/C (dose: 50.0 mg/kg/injection, schedule: Q01DX001 (ip), vehicle: Klucel (hydroxypropylcellulose) (HPC)): 98 % of control
T/C (dose: 100.0 mg/kg/injection, schedule: Q01DX001 (ip), vehicle: Klucel (hydroxypropylcellulose) (HPC)): 95 % of control
T/C (dose: 200.0 mg/kg/injection, schedule: Q01DX001 (ip), vehicle: Klucel (hydroxypropylcellulose) (HPC)): 103 % of control

c1nc(Sc2ncnc3nc[nH]c23)c2[nH]cnc2n1
T/C [1]: 108 % of control
T/C (dose: 75.0 mg/kg/injection, schedule: Q01DX015 (ip), vehicle: saline): 114 % of control
T/C [2]: 104 % of control
T/C (dose: 150.0 mg/kg/injection, schedule: Q01DX015 (ip), vehicle: other): 213 % of control
T/C [10]: 119 % of control
T/C (dose: 238.0 mg/kg/injection, schedule: Q01DX001 (ip), vehicle: saline): 115 % of control
T/C (dose: 300.0 mg/kg/injection, schedule: Q01DX015 (ip), vehicle: other): 176 % of control
T/C (dose: 356.0 mg/kg/injection, schedule: Q01DX001 (ip), vehicle: saline): 117 % of control
T/C (dose: 600.0 mg/kg/injection, schedule: Q01DX015 (ip), vehicle: other): 108 % of control
T/C (dose: 600.0 mg/kg/injection, schedule: Q01DX015 (ip), vehicle: saline): 117 % of control

CNC1C(O)C(OC2C(N)CC(N)C(OC3OC(CN)=CCC3N)C2O)OCC1(C)O (stereo not given)
T/C (dose: 63.5 mg/kg/injection, schedule: Q04DX002 (ip), vehicle: saline with Tween-80): 90 % of control
T/C (dose: 125.0 mg/kg/injection, schedule: Q04DX002 (ip), vehicle: saline with Tween-80): 97 % of control
T/C (dose: 250.0 mg/kg/injection, schedule: Q04DX002 (ip), vehicle: saline with Tween-80): 87 % of control

Nc1nc(N)c(N=O)c(=O)[nH]1
T/C [2]: 105 % of control
T/C [3]: 99 % of control
T/C [10]: 95 % of control
T/C [4]: 100 % of control
T/C (dose: 400.0 mg/kg/injection, schedule: Q01DX001 (ip), vehicle: saline): 94 % of control
T/C [5]: 97 % of control

O=C1c2ccccc2C(=O)N1CNc1ccccc1/C(=N/Nc1ccc([N+](=O)[O-])cc1[N+](=O)[O-])c1ccccc1
T/C (dose: 100.0 mg/kg/injection, schedule: Q04DX002 (ip), vehicle: saline with Tween-80): 91 % of control
T/C (dose: 200.0 mg/kg/injection, schedule: Q04DX002 (ip), vehicle: saline with Tween-80): 91 % of control
T/C (dose: 400.0 mg/kg/injection, schedule: Q04DX002 (ip), vehicle: saline with Tween-80): 94 % of control

CCOC(=O)C12CCC(C1=O)C(C)(O)CC2 (stereo not given)
T/C (dose: 100.0 mg/kg/injection, schedule: Q04DX003 (ip), vehicle: saline with Tween-80): 108 % of control
T/C (dose: 200.0 mg/kg/injection, schedule: Q04DX003 (ip), vehicle: saline with Tween-80): 97 % of control

O=C(C1=CCCCC1)c1ccccc1
T/C (dose: 75.0 mg/kg/injection, schedule: Q04DX002 (ip), vehicle: saline with Tween-80): 108 % of control
T/C (dose: 150.0 mg/kg/injection, schedule: Q04DX002 (ip), vehicle: saline with Tween-80): 97 % of control
T/C (dose: 300.0 mg/kg/injection, schedule: Q04DX002 (ip), vehicle: saline with Tween-80): 114 % of control

Cc1cc2c(cn1)C(=O)C=CC2=O
T/C (dose: 5.0 mg/kg/injection, schedule: Q01DX001 (ip), vehicle: carboxymethylcellulose (CMC)): 94 % of control
T/C (dose: 10.0 mg/kg/injection, schedule: Q01DX001 (ip), vehicle: carboxymethylcellulose (CMC)): 96 % of control

COC(=O)c1ccccc1N(C)C(=O)Nc1ccc(F)cc1
T/C (dose: 100.0 mg/kg/injection, schedule: Q01DX001 (ip), vehicle: carboxymethylcellulose (CMC)): 94 % of control
T/C (dose: 100.0 mg/kg/injection, schedule: Q01DX009 (ip), vehicle: carboxymethylcellulose (CMC)): 92 % of control and 97 % of control
T/C (dose: 100.0 mg/kg/injection, schedule: Q04DX002 (ip), vehicle: carboxymethylcellulose (CMC)): 92 % of control and 100 % of control
T/C (dose: 100.0 mg/kg/injection, schedule: Q04DX003 (ip), vehicle: carboxymethylcellulose (CMC)): 104 % of control
T/C [9]: 101 % of control
T/C (dose: 200.0 mg/kg/injection, schedule: Q01DX009 (ip), vehicle: carboxymethylcellulose (CMC)): 87 % of control and 90 % of control
T/C (dose: 200.0 mg/kg/injection, schedule: Q04DX002 (ip), vehicle: carboxymethylcellulose (CMC)): 98 % of control and 89 % of control
T/C (dose: 200.0 mg/kg/injection, schedule: Q04DX003 (ip), vehicle: carboxymethylcellulose (CMC)): 102 % of control
T/C (dose: 400.0 mg/kg/injection, schedule: Q01DX001 (ip), vehicle: carboxymethylcellulose (CMC)): 89 % of control
T/C (dose: 400.0 mg/kg/injection, schedule: Q01DX009 (ip), vehicle: carboxymethylcellulose (CMC)): 98 % of control and 105 % of control
T/C (dose: 400.0 mg/kg/injection, schedule: Q04DX002 (ip), vehicle: carboxymethylcellulose (CMC)): 98 % of control
T/C (dose: 400.0 mg/kg/injection, schedule: Q04DX003 (ip), vehicle: carboxymethylcellulose (CMC)): 90 % of control
